Experimental data: US9012470B2 (Dart NeuroScience (Cayman) Ltd., priority 2010, dated 2015)
Where a name gives a salt, the structure may show the parent alone.

How the values were obtained:
[1] = test system: benzodiazepine site of GABAA; experiment: Binding assay, benzodiazepine site of GABAA (binding assay 1: rat brain, (3H)-flunitrazepam; binding assay 2: bovine hippocampal membranes, [3H]-RY80); conditions: radioligand binding; for % Inhibition at 0.1 μM: 0.1 μM test compound; for % Inhibition at 10 μM: 10 μM test compound
In short: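 Assay 1: rat whole-brain (minus cerebellum) membranes in Na–K phosphate pH 7.4, 1 nM (3H)-flunitrazepam, 60 min at 25° C., ± 30 μM GABA; nonspecific with 10 μM diazepam. Assay 2: bovine hippocampal membranes, 0.8 nM [3H]-RY80 in 50 mM Tris-Citrate pH 7.8/200 mM NaCl, 60 min at 0-4° C.; nonspecific with 0.5 μM L-655,708. Filtration read-out.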

[2] = test system: GABAA receptors; experiment: Electrophysiology assay, two-electrode voltage clamp in Xenopus oocytes expressing GABAA receptors; type: cell-based; conditions: GABA EC10, screening concentration of 10 μM, subunit combination not stated
Description: mRNA was prepared from lyophilized plasmid pellets containing cDNA inserts encoding the specific GABAA receptor subunit. cDNAs encoding the α2, α3, and γ3 subunits were subcloned into pBluescript, SK^−. cDNAs encoding the α1 and α5 subunits were subcloned into prC while cDNA encoding the β2 subunit was subcloned into pcDNA1. The cDNA construct encoding the γ2s subunit is in the pGH19 expression construct. Overnight cultures of transformed DH5a bacterial cells were performed to grow sufficient quantities for maxiprep isolation of the plasmid cDNA. The resulting plasmid cDNA was linearized by digestion with an appropriate restriction enzyme that cleaves distal to the cDNA insert (XbaI for α1,2, β2, and γ3 or NotI for α3,5 and γ2, respectively). Following digestion, plasmid cDNA was treated with proteinase K and extracted with phenol/chloroform/isoamyl alcohol, followed by ethanol precipitation. cDNA quality was assessed by agarose-gel electrophoresis (1.5% agarose gel). Samples were stored at −20° C. until use. In vitro transcription was performed with T7 RNA polymerase. mRNA was then stored at −80° C. until use. Plasmids were linearized with appropriate restriction enzymes before in vitro transcription using the Message Machine kit (Ambion, Austin, Tex.).
GABAA Receptor Expression in Xenopus oocytes.
GABAA receptor expression in Xenopus oocytes: Following 45 min of 0.15% Tricaine anesthesia, an ovarian section containing the follicular oocytes was removed from the frog through a lateral abdominal incision. Oocytes were immediately placed in a calcium-free solution (NaCl 96 mM, MgCl2 1 mM, KCl 2 mM, Hepes 50 mM, pyruvate 2.5 mM, gentamycin 100 μg/mL, penicillin-streptomycin 50 U/mL, pH 7.4). Following 1.5-2 hour incubation in 0.2% collagenase (type II, Sigma Chemical Co., St. Louis, Mo.) at room temperature, individual Dumont stage V and VI oocytes were transferred to an incubator and maintained overnight in Barth's solution (NaCl 84 mM, NaHCO3 2.4 mM, MgSO4 0.82 mM, KCl 1 mM, Ca(NO3)2 0.33 mM, CaCl2 0.41 mM, Tris/HCl 7.5 mM, pyruvate 2.5 mM, gentamycin 50 μg/mL, penicillin-streptomycin, 100 units/mL, pH 7.4) at 18-20° C. and used for experiments 1-5 days post-injection. Oocytes were injected solution using an electronic microinjector (Drummond, Broomall, Pa.) with 50 nL of RNA containing 0.3-0.5 ng of each subunit RNA in a 1:1:1 ratio. The injected oocytes were used for experiments after 1-5 days of incubation in Barth's solution at 18-20° C.
Measurements of ion currents from oocytes expressing GABAA receptors were performed using a Warner two-electrode voltage-clamp amplifier (Warner Instruments, Inc., Foster City, Calif.) (Park-Chung, M., et al. (1999) Brain Res. 830: 72-87 incorporated herein in its entirety). Microelectrodes were fabricated from borosilicate glass capillaries with a programmed pipette puller (Sutter Instrument Co., Calif.). Microelectrode resistance was 1-3 MΩ when filled with 3 M KCl. The oocyte recording chamber was continuously perfused with Ringer solution. Oocytes were clamped at a holding potential of −70 mV during data acquisition. The membrane current was filtered at 10 Hz and sampled at 100 Hz. Compounds were applied by a gravity-driven external perfusion system. The working volume of the recording chamber was 30 μL and the rate of the perfusion was approximately 50 μL/sec. Compound application was 10-20 sec followed by a 90 sec wash. Data acquisition and external perfusion was computer controlled by custom-developed software. All experiments were performed at room temperature (22-24° C.). Dose-response data from each oocyte were fitted to the Hill equation by non-linear regression using the equation: IGABA=Emax/(1+(EC50/c)^n^H)
Emax is the maximum response, EC50 is the concentration producing 50% of the maximal response, nH is the Hill coefficient and c is the concentration of agonist. […]

% Inhibition at 0.1 μM [1]	% Inhibition at 10 μM [1]	SMILES	EP Modulation [2]
A (A indicates % inhibition >80%)	A (A indicates % inhibition >80%)	CNC(=O)n1cc2[nH]cc3c(=O)n(-c4ccccc4)nc-3c2c1 [Compound 13a, N-Methyl-3-oxo-2-phenyl-2,3-dihydropyrazolo[3,4-d]pyrrolo[3,4-b]pyridine-7(5H)-carboxamide]	D (D indicates negative modulation >20%)
A (A indicates % inhibition >80%)	A (A indicates % inhibition >80%)	CCNC(=O)n1cc2[nH]cc3c(=O)n(-c4ccccc4)nc-3c2c1 [Compound 13b, N-Ethyl-3-oxo-2-phenyl-2,3-dihydropyrazolo[3,4-d]pyrrolo[3,4-b]pyridine-7(5H)-carboxamide]	D (D indicates negative modulation >20%)
A (A indicates % inhibition >80%)	A (A indicates % inhibition >80%)	CCCNC(=O)n1cc2[nH]cc3c(=O)n(-c4ccccc4)nc-3c2c1 [Compound 13c, 3-Oxo-2-phenyl-N-propyl-2,3-dihydropyrazolo[3,4-d]pyrrolo[3,4-b]pyridine-7(5H)-carboxamide]	D (D indicates negative modulation >20%)
A (A indicates % inhibition >80%)	A (A indicates % inhibition >80%)	CCNC(=O)n1cc2[nH]cc3c(=O)n(-c4ccc(F)cc4)nc-3c2c1 [Compound 13f, N-Ethyl-2-(4-fluorophenyl)-3-oxo-2,3-dihydropyrazolo[3,4-d]pyrrolo[3,4-b]pyridine-7(5H)-carboxamide]	D (D indicates negative modulation >20%)
A (A indicates % inhibition >80%)	A (A indicates % inhibition >80%)	CCCCNC(=O)n1cc2[nH]cc3c(=O)n(-c4ccccc4)nc-3c2c1 [Compound 13i, N-Butyl-3-oxo-2-phenyl-2,3-dihydropyrazolo[3,4-d]pyrrolo[3,4-b]pyridine-7(5H)-carboxamide]	E (E indicates negative modulation <20%)

The remaining lines, values behind:

SMILES	% Inhibition at 0.1 μM [1]	% Inhibition at 10 μM [1]	EP Modulation [2]
CCNC(=O)n1ncc2c3nn(-c4ccc(Cl)cc4)c(=O)c-3c[nH]c21 [Compound 6o]	B (B indicates % inhibition <80% and >20%)	A (A indicates % inhibition >80%)	E (E indicates negative modulation <20%)
CCNC(=O)n1ncc2c3nn(-c4ccsc4)c(=O)c-3c[nH]c21 [Compound 6u, N-ethyl-3-oxo-2-(thiophen-3-yl)-2,3-dihydrodipyrazolo[3,4-b:3′,4′-d]pyridine-6(5H)-carboxamide]		A (A indicates % inhibition >80%)	D (D indicates negative modulation >20%)
CCNC(=O)n1ncc2c3nn(-c4ccc(Br)cc4)c(=O)c-3c[nH]c21 [Compound 6w, 2-(4-bromophenyl)-N-ethyl-3-oxo-2,3-dihydrodipyrazolo[3,4-b:3′,4′-d]pyridine-6(5H)-carboxamide.TFA]		A (A indicates % inhibition >80%)	E (E indicates negative modulation <20%)
CCNC(=O)n1ncc2c3nn(-c4ccc(C(C)C)cc4)c(=O)c-3c[nH]c21 [Compound 6z, N-ethyl-2-(4-isopropylphenyl)-3-oxo-2,3-dihydrodipyrazolo[3,4-b:3′,4′-d]pyridine-6(5H)-carboxamide. TFA]		A (A indicates % inhibition >80%)	E (E indicates negative modulation <20%)
CN(C)CCNC(=O)n1ncc2c3nn(-c4ccccc4)c(=O)c-3c[nH]c21 [Compound 7a, N-(2-(dimethylamino)ethyl)-3-oxo-2-phenyl-2,3-dihydrodipyrazolo[3,4-b:3′,4′-d]pyridine-6(5H)-carboxamide]	C (C indicates % inhibition <20%)	B (B indicates % inhibition <80% and >20%)	E (E indicates negative modulation <20%)
O=C(NCC(F)(F)F)n1ncc2c3nn(-c4ccccc4)c(=O)c-3c[nH]c21 [Compound 7b, 3-oxo-2-phenyl-N-(2,2,2-trifluoroethyl)-2,3-dihydrodipyrazolo[3,4-b:3′,4′-d]pyridine-6(5H)-carboxamide]	B (B indicates % inhibition <80% and >20%)	A (A indicates % inhibition >80%)	D (D indicates negative modulation >20%)
CC(C)N1CCN(C(=O)n2ncc3c4nn(-c5ccccc5)c(=O)c-4c[nH]c32)CC1 [Compound 7d, 6-(4-isopropylpiperazine-1-carbonyl)-2-phenyl-5,6-dihydrodipyrazolo[3,4-b:3′,4′-d]pyridin-3(2H)-one]	C (C indicates % inhibition <20%)	C (C indicates % inhibition <20%)	Positive
CCNC(=O)n1cc2[nH]cc3c(=O)n(-c4ccccc4F)nc-3c2c1 [Compound 13d, N-Ethyl-2-(2-fluorophenyl)-3-oxo-2,3-dihydropyrazolo[3,4-d]pyrrolo[3,4-b]pyridine-7(5H)-carboxamide]	B (B indicates % inhibition <80% and >20%)	A (A indicates % inhibition >80%)	D (D indicates negative modulation >20%)
CCCCNC(=O)n1cc2[nH]cc3c(=O)n(-c4ccccc4F)nc-3c2c1 [Compound 13e, N-butyl-2-(2-fluorophenyl)-3-oxo-2,3-dihydropyrazolo[3,4-d]pyrrolo[3,4-b]pyridine-7(5H)-carboxamide]	B (B indicates % inhibition <80% and >20%)	A (A indicates % inhibition >80%)	E (E indicates negative modulation <20%)
CCNC(=O)n1cc2[nH]cc3c(=O)n(-c4ccc(F)cc4F)nc-3c2c1 [Compound 13g, 2-(2,4-Difluorophenyl)-N-ethyl-3-oxo-2,3-dihydropyrazolo[3,4-d]pyrrolo[3,4-b]pyridine-7(5H)-carboxamide]	B (B indicates % inhibition <80% and >20%)	A (A indicates % inhibition >80%)	D (D indicates negative modulation >20%)
CCNC(=O)n1cc2[nH]cc3c(=O)n(-c4ccccc4)nc-3c2n1 [Compound 21a]	B (B indicates % inhibition <80% and >20%)	C (C indicates % inhibition <20%)	D (D indicates negative modulation >20%)
